# Numbered stars: 1 amine (or outer) side, 2 acyl side, 3 side chain; on linkers, the order of the positions; unused ones are H or OH. Square brackets hold non-standard residues; d marks the D form. Peptide text beside a SMILES is read from it. X1 = C/C=C/CC[C@H](N[*:1])C(=O)[*:2]; pGlu = O=C1CC[C@@H](C(=O)O)N1; Ahp(2) = CCCCC[C@H](N)C(=O)O
# How the values were obtained:
# [1] = target: T1, Cholecystokinin receptor type A (Rattus norvegicus, UniProt P30551); experiment: Concentration producing half-maximal inhibition of specific binding of [125I]Bolton-Hunter CCK-8 to Cholecystokinin type A receptor in the rat pancreas
# T1 sequence (P30551 whole entry): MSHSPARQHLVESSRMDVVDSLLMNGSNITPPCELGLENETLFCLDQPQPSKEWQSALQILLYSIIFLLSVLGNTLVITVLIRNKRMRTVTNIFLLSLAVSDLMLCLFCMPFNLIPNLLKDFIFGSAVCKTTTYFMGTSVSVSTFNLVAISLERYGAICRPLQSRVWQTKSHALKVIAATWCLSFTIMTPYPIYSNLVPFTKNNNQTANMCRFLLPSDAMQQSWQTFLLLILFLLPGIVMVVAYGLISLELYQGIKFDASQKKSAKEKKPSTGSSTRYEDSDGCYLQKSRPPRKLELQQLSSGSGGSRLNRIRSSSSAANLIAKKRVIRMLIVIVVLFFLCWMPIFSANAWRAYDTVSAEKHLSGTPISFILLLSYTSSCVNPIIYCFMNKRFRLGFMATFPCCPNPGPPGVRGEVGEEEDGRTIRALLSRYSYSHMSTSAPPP
# [2] = target: T2, Substance-K receptor (Mesocricetus auratus, UniProt P51144); experiment: (§1) Concentration producing half-maximal inhibition of specific binding of. [125I]neurokinin A to NK-2 receptors in the hamster urinary bladder; assay type: single protein
# T2 sequence (P51144 whole entry): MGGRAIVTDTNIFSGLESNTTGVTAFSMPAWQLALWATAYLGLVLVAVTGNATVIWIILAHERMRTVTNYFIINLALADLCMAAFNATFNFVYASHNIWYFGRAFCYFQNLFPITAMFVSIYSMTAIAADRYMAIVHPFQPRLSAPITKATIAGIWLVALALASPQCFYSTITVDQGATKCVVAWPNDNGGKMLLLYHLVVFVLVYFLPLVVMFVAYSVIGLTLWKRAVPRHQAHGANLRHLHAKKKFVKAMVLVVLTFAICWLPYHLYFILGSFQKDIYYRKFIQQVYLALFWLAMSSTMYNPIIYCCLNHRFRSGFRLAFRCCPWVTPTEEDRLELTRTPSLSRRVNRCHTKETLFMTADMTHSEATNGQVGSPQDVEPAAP
# [3] = target: T3, Neuromedin-K receptor (Cavia porcellus, UniProt P30098); experiment: (§2) Concentration producing half-maximal inhibition of specific binding of [3H]senktide to Tachykinin receptor 3 in the guinea pig cerebral cortex; assay type: tissue-based
# T3 sequence (P30098 whole entry): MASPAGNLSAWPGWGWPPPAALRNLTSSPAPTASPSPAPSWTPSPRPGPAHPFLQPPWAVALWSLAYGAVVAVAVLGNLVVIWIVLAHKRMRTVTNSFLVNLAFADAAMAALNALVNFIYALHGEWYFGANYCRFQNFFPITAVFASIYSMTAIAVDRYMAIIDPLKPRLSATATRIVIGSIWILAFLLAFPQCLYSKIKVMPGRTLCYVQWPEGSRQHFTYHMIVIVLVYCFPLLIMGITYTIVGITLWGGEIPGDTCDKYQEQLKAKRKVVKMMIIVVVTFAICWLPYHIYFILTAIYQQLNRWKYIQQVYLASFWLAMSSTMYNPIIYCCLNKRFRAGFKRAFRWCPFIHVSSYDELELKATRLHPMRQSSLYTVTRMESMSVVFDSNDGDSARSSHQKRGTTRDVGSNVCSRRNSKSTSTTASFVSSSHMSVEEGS
# [4] = target: Substance-P receptor (Cavia porcellus, UniProt P30547); experiment: Concentration producing half-maximal inhibition of specific binding of. [125I]Bolton-Hunter Substance P to NK-1 receptors in the guinea pig cerebral cortex; assay type: tissue-based
# [5] = target: T4, Substance-K receptor (Mesocricetus auratus) (UniProt P51144); experiment: as §1; conditions: Cricetulus griseus
# T4 sequence (whole entry): T2 sequence (P51144 whole entry)
# [6] = target: T5, Neuromedin-K receptor (Cavia porcellus) (UniProt P30098); experiment: as §2; assay type: tissue-based
# T5 sequence (whole entry): T3 sequence (P30098 whole entry)
# [7] = target: T6, Gastrin/cholecystokinin type B receptor (Mus musculus, UniProt P56481); experiment: Concentration producing half-maximal inhibition of specific binding of [125I]Bolton-Hunter CCK-8 to Cholecystokinin type B receptor in the mouse cerebral cortex; assay type: tissue-based
# T6 sequence (P56481 whole entry): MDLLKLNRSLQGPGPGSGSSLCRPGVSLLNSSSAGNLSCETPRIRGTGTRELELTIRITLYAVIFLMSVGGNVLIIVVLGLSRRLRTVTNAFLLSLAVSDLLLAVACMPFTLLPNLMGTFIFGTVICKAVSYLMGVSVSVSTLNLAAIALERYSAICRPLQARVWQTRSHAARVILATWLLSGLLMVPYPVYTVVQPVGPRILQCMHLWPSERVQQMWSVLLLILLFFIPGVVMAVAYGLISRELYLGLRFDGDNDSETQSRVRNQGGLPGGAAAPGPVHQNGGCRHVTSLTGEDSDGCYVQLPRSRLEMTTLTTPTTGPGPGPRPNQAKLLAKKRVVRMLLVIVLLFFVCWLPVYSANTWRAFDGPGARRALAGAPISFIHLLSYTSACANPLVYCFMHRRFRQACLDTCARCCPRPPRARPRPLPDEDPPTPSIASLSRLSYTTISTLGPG
# Substance-P receptor, sequence (P30547 whole entry): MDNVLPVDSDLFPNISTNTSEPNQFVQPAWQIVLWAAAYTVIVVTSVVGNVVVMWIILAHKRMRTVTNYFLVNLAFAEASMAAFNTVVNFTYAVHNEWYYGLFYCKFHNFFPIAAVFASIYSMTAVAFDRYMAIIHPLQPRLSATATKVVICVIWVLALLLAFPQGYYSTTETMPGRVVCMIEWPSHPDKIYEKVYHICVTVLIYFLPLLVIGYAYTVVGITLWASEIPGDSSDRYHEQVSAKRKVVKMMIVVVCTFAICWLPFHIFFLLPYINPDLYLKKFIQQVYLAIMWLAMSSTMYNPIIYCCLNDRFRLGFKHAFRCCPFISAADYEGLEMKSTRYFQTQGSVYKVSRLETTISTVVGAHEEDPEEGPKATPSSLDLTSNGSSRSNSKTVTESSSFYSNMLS
IC50 [1],IC50 [2],IC50 [3],IC50 [4],Compound,other results
4250 nM,–,–,–,CSCC[C@H](NC(=O)[C@@H](N)Cc1c[nH]c2ccccc12)C(=O)N[C@@H](CC(=O)O)C(=O)N[C@@H](Cc1ccccc1)C(N)=O [TETRAGASTRIN],–
–,1620 nM,276 nM,29.5 nM,Ac-QQFFGLM-NH2,–
–,1370 nM,882 nM,115 nM,C/C=C/CC[C@H](NC(=O)[C@H](CC(C)C)NC(=O)CNC(=O)[C@H](Cc1ccccc1)NC(=O)[C@H](Cc1ccccc1)NC(=O)[C@H](CCC(N)=O)NC(=O)[C@H](CCC(N)=O)NC(C)=O)C(N)=O (Ac-QQFFGL[X1]-NH2),–
–,–,–,97 nM,CCCCC[C@H](NC(=O)[C@H](CC(C)C)NC(=O)CNC(=O)[C@H](Cc1ccccc1)NC(=O)[C@H](Cc1ccccc1)NC(=O)[C@H](CCC(N)=O)NC(=O)[C@@H]1CCC(=O)N1)C(N)=O ([pGlu]QFFGL[Ahp(2)]-NH2),inhibition [5]: 47%; inhibition [6]: 25%
8160 nM,–,–,–,C/C=C/CC[C@H](NC(=O)[C@@H](N)Cc1c[nH]c2ccccc12)C(=O)N[C@@H](CC(=O)O)C(=O)N[C@@H](Cc1ccccc1)C(N)=O,IC50 [7]: 4.9 nM
8490 nM,–,–,–,CCCCC[C@H](NC(=O)[C@@H](N)Cc1c[nH]c2ccccc12)C(=O)N[C@@H](CC(=O)O)C(=O)N[C@@H](Cc1ccccc1)C(N)=O (H-W[Ahp(2)]DF-NH2),IC50 [7]: 2.83 nM
–,3290 nM,1130 nM,49.6 nM,H-QQFFGLM-NH2,–
–,637 nM,533 nM,44.7 nM,CCCCC[C@H](NC(=O)[C@H](CC(C)C)NC(=O)CNC(=O)[C@H](Cc1ccccc1)NC(=O)[C@H](Cc1ccccc1)NC(=O)[C@H](CCC(N)=O)NC(=O)[C@H](CCC(N)=O)NC(C)=O)C(N)=O (Ac-QQFFGL[Ahp(2)]-NH2),–
–,–,–,25.4 nM,CSCC[C@H](NC(=O)[C@H](CC(C)C)NC(=O)CNC(=O)[C@H](Cc1ccccc1)NC(=O)[C@H](Cc1ccccc1)NC(=O)[C@H](CCC(N)=O)NC(=O)[C@@H]1CCC(=O)N1)C(N)=O ([pGlu]QFFGLM-NH2),–
–,2900 nM,1880 nM,366 nM,C/C=C/CC[C@H](NC(=O)[C@H](CC(C)C)NC(=O)CNC(=O)[C@H](Cc1ccccc1)NC(=O)[C@H](Cc1ccccc1)NC(=O)[C@H](CCC(N)=O)NC(=O)[C@@H]1CCC(=O)N1)C(N)=O ([pGlu]QFFGL[X1]-NH2),–
